Experimental data as given in patent publication US11285103B2, “Degradable hydrogel under physiological conditions” (priority 2015, dated 2022).
Each block holds one molecule with its values, some of them ahead of it. Numbered stars: 1 amine (or outer) side, 2 acyl side, 3 side chain; on linkers, the order of the positions; unused ones are H or OH. Square brackets hold non-standard residues; d marks the D form. Peptide text beside a SMILES is read from it. * marks the point of attachment. Fmoc = O=C(OCC1c2ccccc2-c2ccccc21)*; X1 = NCCc1cc(CN[*:1])ccc1C(=O)[*:2]

Legend:
[1] = system: diabetic rats; test: Blood glucose change in streptozotocin-induced diabetic rats; type: in vivo, Wistar rats; settings: 40 nmol/kg daily
Protocol: 9-week-old male Wistar rats, average weight 240±10 g, were housed in polypropylene cages and maintained at constant temperature and humidity on a 12 hour light/dark cycle, and allowed access to food and water ad libitum. When diabetes was induced, rats were fasted for 48 hours and intraperitoneally injected with streptozotocin (60 mg/kg, dissolved in […] sodium citrate buffer, pH 4.5), then food was provided. Blood glucose was checked after three days. Animals with blood glucose above 250 mg/dl was considered diabetic, and the rats with blood glucose higher than 450 mg/dl were used in the experiment. Recombinant insulin (24 nmol/kg) was injected daily to maintain blood glucose no higher than 550 mg/dl.
The insulin hydrogels were prepared according to the methods in Examples 8 and 20, but the hydrogel used in this example was loaded only with insulin. The actual insulin content was calculated with the method in Example 18.
Rats showing hyperglycemia (400-450 mg/dl) were divided into 3 groups, each containing 8 rats. Rats in the first group were intraperitoneally injected saline (100 μL). Rats in the second group were intraperitoneal injected insulin detemir (40 nmol/kg) daily. Rats in the third group were Injected hydrogel (75 nmol/kg, calculated according to the actual amount of human insulin in the hydrogel). […]

[2] = Determination of half life in serum (cleavage of biodegradable linkers from model peptide); type: in vitro ADME; settings: serum (100%); linker X on N terminus of model peptide X-G-dI-dV-dE-dQ-dA-dA; 100% serum, 37° C.; read-out: t1/2 (h), cleavage of biodegradable linker (converted)
Protocol: Model peptides X-G-dI-dV-dE-dQ-dA-dA (SEQ ID NO:4) capped with various biodegradable linkers were used in the assay. D amino acids were used to prevent other enzymatic cleavage of the model peptides. The peptides were dissolved in 100% serum and incubated at 37° C. Samples were collected for analysis at different time points (e.g., 8 h, 16 h, 24 h, 48 h, 72 h, 96 h, and 120 h).
The rate of cleavage was determined for the model peptides capped with respective biodegradable linkers. The concentrations of the model peptides capped with biodegradable linkers and the released model peptides were determined by their respective peak areas. The first order dissociation rate constant of a model peptide capped with a biodegradable linker was determined by plotting the logarithm of [starting model peptide capped with the biodegradable linker]/[remaining model peptide capped with the biodegradable linker] at various time intervals. The cleavage half life of a peptide capped with a biodegradable linker was calculated by using the equation and the slope derived from this plot.

[3] = Determination of half life in PBS (cleavage of biodegradable linkers from model peptides); type: physicochemical; settings: linker X on N terminus of model peptide X-[…]; 1 mg/mL in PBS, 37° C.; read-out: t1/2 (h), cleavage of biodegradable linker (converted)
Protocol: Peptides GIVEQAA-NH2 (SEQ ID NO: 3) and […] (SEQ ID NO: 2), two mimics of the N-terminus section of insulin A chain, were used as model peptides to determine the half lives of various biogradable linkers linked to the N-terminus of the peptides through an amide bond. The model peptides were prepared with Fmoc chemistry, cleaved by TFA and purified by preparative RP-HPLC.
A model peptide capped with a biodegradable linker was dissolved at 1 mg/mL concentration in PBS and the solution was incubated at 37° C. in a water bath. Samples were collected for analysis at different time points (e.g., 8 h, 16 h, 24 h, 48 h, 72 h, 96 h, 120 h). […] The cleavage of a biodegradable linker was quenched by lowering pH to 2 by addition of 0.1% TFA solution. RP-HPLC was used to monitor the cleavage reactions and the cleavage rates were quantitatively studied by measuring the peak areas of model peptides when they are capped with biodegradable linkers and when linkers are released. […]
The rate of cleavage was determined for the model peptides capped with respective biodegradable linkers. The concentrations of the model peptides capped with biodegradable linkers and the released model peptides were determined by their respective peak areas. […] The cleavage half life of a peptide capped with a biodegradable linker was calculated by using the equation and the slope derived from this plot. […]

Molecule: Insulin detemir
blood glucose lowering [1]: cannot effectively lower blood glucose

half-life [2]: 735 h
Molecule: CC[C@@H](C)[C@@H](NC(=O)CNC(=O)c1ccc(CNC(=O)OCC2c3ccccc3-c3ccccc32)cc1CCN)C(=O)N[C@@H](C(=O)N[C@H](CCC(=O)O)C(=O)N[C@H](CCC(N)=O)C(=O)N[C@H](C)C(=O)N[C@H](C)C(=O)O)C(C)C (Fmoc-[X1]G[dI][dV][dE][dQ][dA][dA]-OH)

half-life at 1 mg/mL [3]: 264 h
Molecule: CC1NCc2cc(CN)ccc2C1=O (stereo not drawn)
